Measured values: patent US10596267B2, “Method and process for quantitative evaluation of pharmacokinetics, therapeutic effects and safety of delivery of drug compounds to the inner ear for treatment of auditory disease” (The Charles Stark Draper Laboratory, Inc., priority 2016, dated 2020)

Tested on: guinea pig cochleae
Assay: Reciprocating inner ear delivery of DNQX by micropump via cochleostomy; CAP and DPOAE hearing measurements
Details: pump infusion via cochleostomy at the basal turn
Protocol: Infusion began at t=0. A hearing threshold is the minimum sound pressure level (measured in dB SPL) required to generate a response. Data reported are threshold shifts, the change in threshold as compared to baseline. […] CAP amplitudes are also shown, with a legend that is on a log scale.
Reciprocating inner ear delivery and electronically-controlled dosing in a guinea pig model using a pump to infuse a drug via a cochleostomy (made at the basal turn) was evaluated. The drug reservoir was loaded with the glutamate receptor antagonist DNQX (which disrupts hair-cell-to-auditory-nerve synaptic transmission resulting in attenuation of compound action potentials (CAPs) generated in response to auditory stimuli). The molecular weight (232 Daltons) and physicochemical characteristics of DNQX make it a suitable model for evaluating the potential of other small molecule candidates for inner ear delivery. […] DPOAE responses from hair cells (which are not altered by DNQX) were monitored as a control for nonspecific effects.
In the experiments described herein, drug concentration was not measured directly, but was inferred by mapping the drug-mediated CAP inhibition along the length of the ST to calculate drug concentrations at a given location.

Compound: O=[N+]([O-])c1cc2nc(O)c(O)nc2cc1[N+](=O)[O-] [DNQX]
- DPOAE over time (control for nonspecific effects, mechanical damage or conductive hearing loss): lack of alterations in DPOAE over time
- compound action potential (CAP) after initiation of drug delivery (tone-pip-evoked CAP): reduction in CAP
